Broadly, the IC50 is the midpoint of a concentration-inhibition curve. Higher therefore signals weaker potency in that assay.

From ChEMBL document CHEMBL1944545, “Discovery of novel selective inhibitors for EGFR-T790M/L858R” (Bioorg Med Chem Lett, 2012) come the findings set out here.

The target of experiment [1] is Epidermal growth factor receptor (Homo sapiens, UniProt P00533). The experiment is described as follows: Inhibition of wild-type EGFR expressed using baculovirus expression system by ELISA.
For experiment [2], the target named is Epidermal growth factor receptor (Homo sapiens, UniProt P00533, L858R/T790M). The experiment is described as follows: Inhibition of EGFR T790M/L858R mutant expressed using baculovirus expression system by ELISA.
A further experiment concerns A549. The experiment is described as follows: Antiproliferative activity against human A549 cells over-expressing EGFR gene after 72 hrs by SRB assay. In kind it is functional, cell-based. The note with it: A549, 72 h.
The next experiment deals with A-431. Description: Antiproliferative activity against human A431 cells over-expressing EGFR gene after 72 hrs by SRB assay. In kind it is functional, cell-based. The note with it: A-431, 72 h.
In another experiment the test system is NCI-H1975. The experiment is described as follows: Antiproliferative activity against human NCI-H1975 cells over-expressing EGFR mutant gene after 72 hrs by SRB assay. The experiment is classed as functional, cell-based. The note with it: NCI-H1975, 72 h. (Sulforhodamine B stains cellular protein and so reports cell mass.)

Epidermal growth factor receptor (Homo sapiens, UniProt P00533, L858R/T790M), sequence (P00533 25-1210 T790M/L858R limits assumed): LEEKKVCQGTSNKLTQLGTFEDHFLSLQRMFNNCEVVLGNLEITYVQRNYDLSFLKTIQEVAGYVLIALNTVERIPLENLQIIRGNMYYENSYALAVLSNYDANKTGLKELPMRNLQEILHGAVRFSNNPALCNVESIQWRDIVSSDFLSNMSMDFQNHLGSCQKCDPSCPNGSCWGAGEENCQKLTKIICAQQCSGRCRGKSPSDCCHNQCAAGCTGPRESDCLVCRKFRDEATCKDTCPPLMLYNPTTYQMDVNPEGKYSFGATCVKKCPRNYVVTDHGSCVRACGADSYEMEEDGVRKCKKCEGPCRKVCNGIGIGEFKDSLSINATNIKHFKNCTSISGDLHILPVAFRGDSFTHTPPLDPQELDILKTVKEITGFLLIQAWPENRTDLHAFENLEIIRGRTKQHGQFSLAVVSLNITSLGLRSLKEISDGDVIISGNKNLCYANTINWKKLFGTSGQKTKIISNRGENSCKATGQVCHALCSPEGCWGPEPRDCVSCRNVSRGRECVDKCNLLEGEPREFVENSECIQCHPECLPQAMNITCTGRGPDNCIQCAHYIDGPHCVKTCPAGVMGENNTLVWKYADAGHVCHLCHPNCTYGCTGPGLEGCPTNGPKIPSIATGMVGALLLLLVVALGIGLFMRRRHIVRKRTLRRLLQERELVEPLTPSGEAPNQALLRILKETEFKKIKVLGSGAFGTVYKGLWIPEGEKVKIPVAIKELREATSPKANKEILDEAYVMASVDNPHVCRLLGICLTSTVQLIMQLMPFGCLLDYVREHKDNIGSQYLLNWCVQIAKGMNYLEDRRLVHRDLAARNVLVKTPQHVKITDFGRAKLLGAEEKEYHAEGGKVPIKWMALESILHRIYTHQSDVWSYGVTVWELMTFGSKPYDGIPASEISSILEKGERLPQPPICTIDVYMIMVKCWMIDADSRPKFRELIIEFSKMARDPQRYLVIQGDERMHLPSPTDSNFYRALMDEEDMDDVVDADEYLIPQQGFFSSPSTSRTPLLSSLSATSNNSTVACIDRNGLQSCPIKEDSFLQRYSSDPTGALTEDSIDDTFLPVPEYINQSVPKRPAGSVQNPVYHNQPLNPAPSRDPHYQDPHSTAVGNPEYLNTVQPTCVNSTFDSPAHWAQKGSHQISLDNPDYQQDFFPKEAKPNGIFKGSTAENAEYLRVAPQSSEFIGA
Epidermal growth factor receptor (Homo sapiens, UniProt P00533), sequence (P00533 whole entry): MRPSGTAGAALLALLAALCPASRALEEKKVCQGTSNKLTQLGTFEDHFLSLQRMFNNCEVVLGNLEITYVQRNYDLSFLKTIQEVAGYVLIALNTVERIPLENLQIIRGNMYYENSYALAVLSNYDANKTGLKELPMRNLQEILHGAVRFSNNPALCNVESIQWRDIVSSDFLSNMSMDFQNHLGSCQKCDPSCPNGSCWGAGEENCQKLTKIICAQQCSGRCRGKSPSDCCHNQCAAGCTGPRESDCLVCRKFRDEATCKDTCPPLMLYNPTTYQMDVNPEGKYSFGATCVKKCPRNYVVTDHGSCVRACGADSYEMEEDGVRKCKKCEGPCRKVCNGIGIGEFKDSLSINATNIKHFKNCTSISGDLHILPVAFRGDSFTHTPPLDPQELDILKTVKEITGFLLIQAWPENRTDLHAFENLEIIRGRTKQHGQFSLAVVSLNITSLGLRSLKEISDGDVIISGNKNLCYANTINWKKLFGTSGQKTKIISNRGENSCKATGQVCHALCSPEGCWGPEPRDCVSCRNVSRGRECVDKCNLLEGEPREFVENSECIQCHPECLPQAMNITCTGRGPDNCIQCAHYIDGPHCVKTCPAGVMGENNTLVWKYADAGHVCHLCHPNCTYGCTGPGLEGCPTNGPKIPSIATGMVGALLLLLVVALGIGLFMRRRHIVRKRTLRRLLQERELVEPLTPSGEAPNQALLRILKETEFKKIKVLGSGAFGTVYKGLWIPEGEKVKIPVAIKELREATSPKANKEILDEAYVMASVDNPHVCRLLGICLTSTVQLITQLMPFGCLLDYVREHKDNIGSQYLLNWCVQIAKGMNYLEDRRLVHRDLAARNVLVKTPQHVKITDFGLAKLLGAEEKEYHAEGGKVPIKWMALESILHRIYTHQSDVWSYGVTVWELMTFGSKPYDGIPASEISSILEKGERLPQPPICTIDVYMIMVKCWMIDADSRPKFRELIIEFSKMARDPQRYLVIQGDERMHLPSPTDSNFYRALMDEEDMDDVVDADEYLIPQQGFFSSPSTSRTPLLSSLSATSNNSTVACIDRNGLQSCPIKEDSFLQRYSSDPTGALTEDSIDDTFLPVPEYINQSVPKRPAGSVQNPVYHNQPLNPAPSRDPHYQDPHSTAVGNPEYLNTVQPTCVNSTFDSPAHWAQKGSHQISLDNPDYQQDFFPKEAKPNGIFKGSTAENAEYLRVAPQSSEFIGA

`COc1ccccc1Nc1ccnc(Nc2ccccc2OC)n1`: the IC50 in experiment [1] was 90.4 µM; in experiment [2], over 100 µM; in the experiment on A549, 51.2 µM; with A-431 it was 35.1 µM; in the experiment with NCI-H1975, 38.2 µM.
The corresponding values for `COc1ccc2c3oc(=O)cc(O)c3c(=O)n(C)c2c1` are 76.4 µM, 65.1 µM, 72.6 µM, over 100 µM and over 100 µM.
As for `CN(C)c1nc(N/N=C/c2cc(Br)c(O)c(Br)c2O)nc(Nc2ccc(F)cc2)n1`, the IC50 was 25.9 µM in experiment [1]; 6.5 µM in experiment [2]; 7.7 µM in the experiment with A549; 8 µM in the experiment with A-431; 10.5 µM in the experiment on NCI-H1975.
For `COc1ccc(Nc2nc(Cl)nc(NCc3ccco3)n2)cc1`, in that order: over 100 µM, 20.9 µM, over 100 µM, over 100 µM and over 100 µM.
The corresponding values for `Cc1c(Cc2ccccc2)sc(NCC(=O)COc2ccc3ccccc3c2)c1C(N)=O` are over 100 µM, 24.7 µM, 61.1 µM, 63.8 µM and 51.7 µM.
Take `CNc1nc(N/N=C\c2ccc(OC)cc2)nc(Nc2ccccc2)n1`: the IC50 in experiment [1] is over 100 µM; in experiment [2], 31 µM; in the experiment with A549 it was 76.9 µM; in the experiment with A-431 it was 56 µM; with NCI-H1975, over 100 µM.
`O=C(Nc1cccc(Br)c1)c1c(O)c2ccccc2[nH]c1=O`: the IC50 in experiment [1] is over 100 µM; in experiment [2], 56.8 µM; with A549, over 100 µM; in the experiment on A-431 it was over 100 µM; with NCI-H1975, over 100 µM.
Turning to `CCc1ccc(C(=O)NNc2ccc(Cl)cc2C)cc1`, the half-inhibitory concentration (IC50) was over 100 µM in experiment [1]; 65.6 µM in experiment [2]; over 100 µM in the experiment with A549; over 100 µM with A-431; over 100 µM in the experiment with NCI-H1975.
For `CCOC(=O)c1ccc(NC(=O)CSc2nnc(CNc3ccc(OC)cc3)n2-c2ccccc2)cc1`, the IC50 in experiment [1] is 92.4 µM; in experiment [2], over 100 µM; with A549, over 100 µM; in the experiment with A-431 it was 56.3 µM; with NCI-H1975 it was over 100 µM.
Take `COc1cccc2c1C(=O)c1c(O)ccc(O)c1C2=O`: the IC50 was 4.3 µM in experiment [1]; 17.6 µM in experiment [2]; over 100 µM in the experiment with A549; 71.5 µM in the experiment on A-431; 89.4 µM in the experiment with NCI-H1975.
In the case of `COc1cccc(Nc2ccnc(Nc3cccc(OC)c3)n2)c1`, the IC50 in experiment [1] was 7.7 µM; in experiment [2], 36.1 µM; in the experiment with A549, 3.4 µM; in the experiment on A-431, 0.8 µM; in the experiment on NCI-H1975, 4.1 µM.
Turning to `Cn1cc(NC(=O)/C=N/O)c(=O)n1-c1ccccc1`, the IC50 in experiment [1] is over 100 µM; in experiment [2], 8.9 µM; in the experiment on A549 it was over 100 µM; with A-431, over 100 µM; in the experiment on NCI-H1975, over 100 µM.
For the molecule `Cn1c2ccccc2n2c(=S)[nH]nc12`, the IC50 in experiment [1] is over 100 µM; in experiment [2] it was 22 µM; in the experiment with A549 it was over 100 µM; in the experiment on A-431, over 100 µM; with NCI-H1975, over 100 µM.
Turning to `O=c1c2c(-c3ccccc3)c3c(nc2nc2[nH]nc(S)n12)-c1ccccc1CC3`, the IC50 in experiment [1] was 85.6 µM; in experiment [2], over 100 µM; in the experiment on A549, over 100 µM; in the experiment on A-431, over 100 µM; with NCI-H1975, over 100 µM.
On to `CC(=O)Nc1ccc(S(=O)(=O)Nc2nc3ccccc3nc2Nc2ccc(C(=O)O)cc2)cc1`, for which the IC50 is 35.8 µM in experiment [1]; 23.5 µM in experiment [2]; over 100 µM in the experiment with A549; over 100 µM with A-431; over 100 µM with NCI-H1975.
In the case of `CNc1nc(N/N=C/c2ccc(O)cc2)nc(Nc2ccccc2)n1`, the IC50 in experiment [1] is over 100 µM; in experiment [2], 30.7 µM; with A549 it was over 100 µM; in the experiment with A-431 it was 47 µM; in the experiment with NCI-H1975 it was over 100 µM.
As to `O=C(NNC(=O)c1ncc(Cc2ccsc2)s1)Nc1ccccc1`, the IC50 in experiment [1] was over 100 µM; in experiment [2], 40.9 µM; with A549, over 100 µM; in the experiment with A-431, over 100 µM; in the experiment on NCI-H1975 it was over 100 µM.
`C=CCn1c(N)c(C(=O)N/N=C/c2cccs2)sc1=S`: the IC50 in experiment [1] is over 100 µM; in experiment [2], 66 µM; in the experiment on A549 it was over 100 µM; with A-431 it was over 100 µM; in the experiment with NCI-H1975 it was over 100 µM.
Take `COc1nc(NCCN2CCOCC2)nc(Nc2ccc(Cl)cc2)n1`: the IC50 in experiment [1] was over 100 µM; in experiment [2], 1.5 µM; with A549 it was over 100 µM; in the experiment with A-431, over 100 µM; in the experiment on NCI-H1975, over 100 µM.
Regarding `C=CC(=O)Nc1ccc2ncnc(Nc3ccc(OCc4cccc(F)c4)c(Cl)c3)c2c1` [ALLITINIB], the figures for the IC50 in the experiment with A549, with A-431 and in the experiment on NCI-H1975 were 6.8 µM, 0.2 µM and 0.7 µM, respectively.
As for `O=C(CSc1nc(O)nc(-c2ccc(Cl)cc2)n1)Nc1ccc(Cl)cc1`, the half-inhibitory concentration (IC50) in experiment [1] is over 100 µM; in experiment [2], 13 µM; with A549, 42.9 µM; with A-431 it was over 100 µM; in the experiment with NCI-H1975 it was over 100 µM.
On to `Cc1ccc(-n2c(SCC(=O)Nc3ccccc3Cl)nc3sc(C)c(C)c3c2=O)cc1`, for which the IC50 in experiment [1] is 81.6 µM; in experiment [2], over 100 µM; in the experiment on A549, 92.8 µM; in the experiment on A-431, over 100 µM; in the experiment on NCI-H1975 it was 53.7 µM.
